# According to paper PMC10452110, “Indole-3-Acetamido-Polyamines as Antimicrobial Agents and Antibiotic Adjuvants” (Biomolecules, 2023):
# Like-named read-outs stand apart in the source and are kept apart here.
# Assays:
# [1] = system: Pseudomonas aeruginosa (ATCC 27853); assay: Intrinsic antimicrobial activity (MIC) against P. aeruginosa; type: cell-based
# Method: (§1) The susceptibility of bacterial strains Staphylococcus aureus (ATCC 25923), Escherichia coli (ATCC 25922) and Pseudomonas aeruginosa (ATCC 27853) to antibiotics and compounds was determined using previously reported protocols. Additional antimicrobial evaluation against MRSA (ATCC 43300), Klebsiella pneumoniae (ATCC 700603), Acinetobacter baumannii (ATCC 19606), Candida albicans (ATCC 90028) and Cryptococcus neoformans (ATCC 208821) was undertaken at the Community for Open Antimicrobial Drug Discovery at The University of Queensland (Australia) according to their standard protocols, as reported previously.
# MRSA (ATCC 43300) = assay: Intrinsic antimicrobial activity (MIC) against MRSA; type: cell-based; conditions: Staphylococcus aureus, MRSA ATCC 43300; mean (n = 2); read-out: MIC MRSA
# Method: as §1
# E. coli ATCC 25922 = assay: Enhancement of erythromycin action against E. coli; type: cell-based, Escherichia coli; conditions: erythromycin at 10.9 µM
# Method: (§2) Antibiotic enhancer concentrations were determined using previously reported protocols.
# [2] = system: Cryptococcus neoformans (ATCC 208821); assay: Intrinsic antifungal activity (MIC) against C. neoformans; type: cell-based
# Method: as §1
# [3] = system: Candida albicans (ATCC 90028); assay: Intrinsic antifungal activity (MIC) against C. albicans; type: cell-based
# Method: as §1
# [4] = system: Acinetobacter baumannii (ATCC 19606); assay: Intrinsic antimicrobial activity (MIC) against A. baumannii; type: cell-based
# Method: as §1
# [5] = system: Escherichia coli (ATCC 25922); assay: Intrinsic antimicrobial activity (MIC) against E. coli; type: cell-based
# Method: as §1
# [6] = system: Klebsiella pneumoniae (ATCC 700603); assay: Intrinsic antimicrobial activity (MIC) against K. pneumoniae; type: cell-based
# Method: as §1
# [7] = system: Staphylococcus aureus (ATCC 25923); assay: Intrinsic antimicrobial activity (MIC) against S. aureus; type: cell-based
# Method: as §1
# P. aeruginosa ATCC 27853 = assay: Enhancement of doxycycline action against P. aeruginosa; type: cell-based, Pseudomonas aeruginosa; conditions: doxycycline at 4.5 µM
# Method: as §2
# Cytotoxicity assay = type: cell-based; conditions: human; HEK293 cells; mean (n = 2); read-out: Cytotoxicity: concentration of compound at 50% cytotoxicity (IC50)
# Method: Cytotoxicity assays were conducted using the protocols previously reported.
# human red blood cells = assay: Hemolytic assay; type: cell-based; conditions: mean (n = 2)
# Method: Hemolysis assays were conducted using the protocols previously reported.
# [8] = ATCC27853, P. aeruginosa ATCC 27853, mean (n = 3), read-out: MIC P. a
# [9] = ATCC208821, C. neoformans ATCC 208821, mean (n = 2), read-out: MIC C. n
# [10] = ATCC90028, C. albicans ATCC 90028, mean (n = 2), read-out: MIC C. a
# [11] = ATCC19606, A. baumannii ATCC 19606, mean (n = 2), read-out: MIC A. b
# [12] = ATCC25922, E. coli ATCC 25922, mean (n = 3), read-out: MIC E. c
# [13] = ATCC700603, K. pneumoniae ATCC 700603, mean (n = 2), read-out: MIC K. p
# [14] = ATCC25923, S. aureus ATCC 25923, mean (n = 3), read-out: MIC S. a
SMILES,"MIC [1, 8] [µM]",MIC (MRSA (ATCC 43300)) [µM],Eryth/E. c: concentration required to restore erythromycin activity (combination MIC) (E. coli ATCC 25922) [µM],"MIC [2, 9] [µM]","MIC [3, 10] [µM]","MIC [4, 11] [µM]","MIC [5, 12] [µM]","MIC [6, 13] [µM]","MIC [7, 14] [µM]",Dox/P. a fold change (ratio between intrinsic MIC of the test compound and combination MIC) (P. aeruginosa ATCC 27853) [fold],Dox/P. a: concentration required to restore doxycycline activity (combination MIC) (P. aeruginosa ATCC 27853) [µM],IC50 (Cytotoxicity assay) [µM],Hemolysis: concentration of compound at 10% hemolytic activity (HC10) (human red blood cells) [µM],"MIC ([1]; ATCC27853, read-out: MIC P. a) [µM]","MIC ([2]; ATCC208821, read-out: MIC C. n) [µM]","MIC ([3]; ATCC90028, read-out: MIC C. a) [µM]","MIC ([4]; ATCC19606, read-out: MIC A. b) [µM]","MIC ([5]; ATCC25922, read-out: MIC E. c) [µM]","MIC ([6]; ATCC700603, read-out: MIC K. p) [µM]","MIC ([7]; ATCC25923, read-out: MIC S. a) [µM]"
"O=C(Cc1c[nH]c2ccc(Br)cc12)NCCCNCCCCCCCCCCCCNCCCNC(=O)Cc1c[nH]c2ccc(Br)cc12.O=C(O)C(F)(F)F.O=C(O)C(F)(F)F [Compound 15f, N^1,N^12-Bis(3-(2-(5-bromo-1H-indol-3-yl)acetamido)propyl)dodecane-1,12-diaminium 2,2,2-trifluoroacetate]",197,≤ 0.25,24.6,≤ 0.25,≤ 0.25,7.88,12.3,> 32,6.16,2,98.5,4.75,≤0.25,–,–,–,–,–,–,–
"Cc1ccc2[nH]cc(CC(=O)NCCCNCCCCCCCCCCCCNCCCNC(=O)Cc3c[nH]c4ccc(C)cc34)c2c1.O=C(O)C(F)(F)F.O=C(O)C(F)(F)F [Compound 17f, N^1,N^12-Bis(3-(2-(5-methyl-1H-indol-3-yl)acetamido)propyl)dodecane-1,12-diaminium 2,2,2-trifluoroacetate]",226,≤ 0.28,14.1,≤ 0.28,≤ 0.28,36,14.1,> 36,7.06,1,226,> 36,≤0.28,–,–,–,–,–,–,–
"O=C(Cc1c[nH]c2ccccc12)NCCCNCCCCCCCCCCNCCCNC(=O)Cc1c[nH]c2ccccc12.O=C(O)C(F)(F)F.O=C(O)C(F)(F)F [Compound 14e, N^1,N^10-Bis(3-(2-(1H-indol-3-yl)acetamido)propyl)decane-1,10-diaminium 2,2,2-trifluoroacetate]",–,≤ 0.3,15.1,–,–,–,–,–,–,4,15.1,> 39,≤0.30,60.3,≤ 0.3,≤ 0.3,> 39,15.1,> 39,3.77
"COc1ccc2[nH]cc(CC(=O)NCCCNCCCCCCCCCCNCCCNC(=O)Cc3c[nH]c4ccc(OC)cc34)c2c1.O=C(O)C(F)(F)F.O=C(O)C(F)(F)F [Compound 16e, N^1,N^10-Bis(3-(2-(5-methoxy-1H-indol-3-yl)acetamido)propyl)decane-1,10-diaminium 2,2,2-trifluoroacetate]",112,≤ 0.28,28.1,≤ 0.28,2.25,> 36,14.1,> 36,7.03,8,14.1,> 36,>36,–,–,–,–,–,–,–
"COc1ccc2[nH]cc(CC(=O)NCCCNCCCCCCCCCCCCNCCCNC(=O)Cc3c[nH]c4ccc(OC)cc34)c2c1.O=C(O)C(F)(F)F.O=C(O)C(F)(F)F [Compound 16f, N^1,N^12-Bis(3-(2-(5-methoxy-1H-indol-3-yl)acetamido)propyl)dodecane-1,12-diaminium 2,2,2-trifluoroacetate]",109,≤ 0.27,27.3,≤ 0.27,35,> 35,13.6,> 35,6.82,8,13.6,> 35,>35,–,–,–,–,–,–,–
